Results: patent publication US8802597B2, “Herbicidal pyrimidines” (E I du Pont de Nemours and Company, priority 2003, dated 2014)

Legend:
Format in all cases: in vivo
[1] = test system: Kentucky bluegrass (Poa pratensis); assay: Test F pre/postemergence
Source text: (§1) Seeds or nutlets of plant species selected from (turf) bermudagrass (Cynodon dactylon), Kentucky bluegrass (Poa pratensis), bentgrass (Agrostis palustris), hard fescue (Festuca ovina), large crabgrass (Digitaria sanguinalis), goosegrass (Eleusine indica), dallisgrass (Paspalum dilatatum), annual bluegrass (Poa annua), common chickweed (Stellaria media), dandelion (Taraxacum officinale), white clover (Trifolium repens), and yellow nutsedge (Cyperus esculentus) were planted and treated preemergence with the test chemical formulated in a non-phytotoxic solvent mixture which included a surfactant.
(§2) At the same time, plants selected from these crop and weed species were treated with postemergence applications of the test chemical formulated in the same manner. Plants ranged in height from 2 to 18 cm (1- to 4-leaf stage) for postemergence treatments. Treated plants and controls were maintained in a greenhouse for 12 to 14 days, after which time all species were compared to controls and visually evaluated. Plant response ratings, summarized in Table F, are based on a scale of 0 to 100 where 0 is no effect and 100 is complete control. A dash (-) response means no test result.

[2] = test system: dallisgrass (Paspalum dilatatum); assay: Test F pre/postemergence
Source text: as §1, §2

[3] = test system: hard fescue (Festuca ovina); assay: Test F pre/postemergence
Source text: as §1, §2

[4] = test system: large crabgrass (Digitaria sanguinalis); assay: Test F pre/postemergence
Source text: as §1, §2

[5] = test system: (turf) bermudagrass (Cynodon dactylon); assay: Test F pre/postemergence
Source text: as §1, §2

[6] = test system: goosegrass (Eleusine indica); assay: Test F pre/postemergence
Source text: as §1, §2

[7] = test system: white clover (Trifolium repens); assay: Test F pre/postemergence
Source text: as §1, §2

[8] = test system: water-seeded rice seedlings (ORYSW; Oryza sativa cv. ‘Japonica-M202’); assay: Test J mixtures of compound 58 with azimsulfuron, flooded paddy; conditions: 21 days, scale 0-100
Source text: (§3) This test evaluated the effect of mixtures of compound 58 with azimsulfuron on several plant species. Three plastic pots (ca. 16-cm diameter) per rate were partially filled with sterilized Tama silt loam soil comprising a 35:50:15 ratio of sand, silt and clay and 2.6% organic matter. Separate plantings for each of the three pots were as follows. Seeds from the U.S. of ducksalad (HETLI; Heteranthera limosa), smallflower umbrella sedge (CYPDI; Cyperus difformis) and purple redstem (AMMCO; Ammannia coccinea), were planted into one 16-cm pot for each rate. Seeds from the U.S. of bearded sprangletop (LEFUF; Leptochloa fusca ssp. fascicularis), one stand of 9 or 10 water-seeded rice seedlings (ORYSW; Oryza sativa cv. ‘Japonica-M202’), and one stand of 6 transplanted rice seedlings (ORYSP; Oryza sativa cv. ‘Japonica-M202’) were planted into one 16-cm pot for each rate. Seeds from the U.S. of barnyardgrass (ECHCG; Echinochloa crus-galli), late watergrass (ECOR2; Echinochloa oryzicola), early watergrass (ECHOR; Echinochloa oryzoides) and junglerice (ECHCO; Echinochloa colona) were planted into one 16-cm pot for each rate. Plantings were sequential so that crop and weed species were at the 2.0 to 2.5-leaf stage at time of treatment.
(§4) Potted plants were grown in a greenhouse with day/night temperature settings of 29.5/26.7° C., and supplemental balanced lighting was provided to maintain a 16-hour photoperiod. Test pots were maintained in the greenhouse until test completion.
(§5) At time of treatment, test pots were flooded to 3 cm above the soil surface and then treated by application directly to the paddy water of test compounds formulated in a non-phytotoxic solvent mixture which included a surfactant. The pots were maintained at the 3-cm water depth for the duration of the test. Treatments consisted of compound 58 and azimsulfuron alone and in combination. Effects of treatments on rice and weeds were visually evaluated by comparison to untreated controls after 21 days. Plant response ratings were calculated as the means of the three replicates and are summarized in Table J. The ratings are based on a scale of 0 to 100 where 0 is no effect and 100 is complete control. A dash (-) response means no test result. Colby's Equation was used to determine the herbicidal effects expected from the mixtures.

[9] = test system: transplanted rice seedlings (ORYSP; Oryza sativa cv. ‘Japonica-M202’); assay: as above; conditions: 21 days, scale 0-100
Source text: as §3, §4, §5

[10] = test system: barnyardgrass (ECHCG; Echinochloa crus-galli); assay: as above; conditions: 21 days, scale 0-100
Source text: as §3, §4, §5

CCOC(=O)c1nc(C2CC2)nc(N)c1Br [Compound 1, ethyl 6-amino-5-bromo-2-cyclopropyl-4-pyrimidinecarboxylate]
Plant response rating (0 to 100 scale) ([1]; Postemergence, 31 g ai/ha): 20
Plant response rating (0 to 100 scale) ([1]; Postemergence, 62 g ai/ha): 0
Plant response rating (0 to 100 scale) ([1]; Postemergence, 125 g ai/ha): 0
Plant response rating (0 to 100 scale) ([1]; Postemergence, 250 g ai/ha): 0
Plant response rating (0 to 100 scale) ([1]; Postemergence, 500 g ai/ha): 30
Plant response rating (0 to 100 scale) ([1]; Preemergence, 31 g ai/ha): 0
Plant response rating (0 to 100 scale) ([1]; Preemergence, 62 g ai/ha): 30
Plant response rating (0 to 100 scale) ([1]; Preemergence, 125 g ai/ha): 30
Plant response rating (0 to 100 scale) ([1]; Preemergence, 250 g ai/ha): 40
Plant response rating (0 to 100 scale) ([1]; Preemergence, 500 g ai/ha): 80
Plant response rating (0 to 100 scale) ([2]; Postemergence, 31 g ai/ha): 0
Plant response rating (0 to 100 scale) ([2]; Postemergence, 62 g ai/ha): 0
Plant response rating (0 to 100 scale) ([2]; Postemergence, 125 g ai/ha): 15
Plant response rating (0 to 100 scale) ([2]; Postemergence, 250 g ai/ha): 75
Plant response rating (0 to 100 scale) ([2]; Postemergence, 500 g ai/ha): 60
Plant response rating (0 to 100 scale) ([2]; Preemergence, 31 g ai/ha): 10
Plant response rating (0 to 100 scale) ([2]; Preemergence, 62 g ai/ha): 35
Plant response rating (0 to 100 scale) ([2]; Preemergence, 125 g ai/ha): 45
Plant response rating (0 to 100 scale) ([2]; Preemergence, 250 g ai/ha): 70
Plant response rating (0 to 100 scale) ([2]; Preemergence, 500 g ai/ha): 95
Plant response rating (0 to 100 scale) ([3]; Postemergence, 31 g ai/ha): 0
Plant response rating (0 to 100 scale) ([3]; Postemergence, 62 g ai/ha): 0
Plant response rating (0 to 100 scale) ([3]; Postemergence, 125 g ai/ha): 0
Plant response rating (0 to 100 scale) ([3]; Postemergence, 250 g ai/ha): 0
Plant response rating (0 to 100 scale) ([3]; Postemergence, 500 g ai/ha): 0
Plant response rating (0 to 100 scale) ([3]; Preemergence, 31 g ai/ha): 50
Plant response rating (0 to 100 scale) ([3]; Preemergence, 62 g ai/ha): 60
Plant response rating (0 to 100 scale) ([3]; Preemergence, 125 g ai/ha): 60
Plant response rating (0 to 100 scale) ([3]; Preemergence, 250 g ai/ha): 60
Plant response rating (0 to 100 scale) ([3]; Preemergence, 500 g ai/ha): 90
Plant response rating (0 to 100 scale) ([4]; Postemergence, 31 g ai/ha): 0
Plant response rating (0 to 100 scale) ([4]; Postemergence, 62 g ai/ha): 45
Plant response rating (0 to 100 scale) ([4]; Postemergence, 125 g ai/ha): 70
Plant response rating (0 to 100 scale) ([4]; Postemergence, 250 g ai/ha): 75
Plant response rating (0 to 100 scale) ([4]; Postemergence, 500 g ai/ha): 90
Plant response rating (0 to 100 scale) ([4]; Preemergence, 31 g ai/ha): 15
Plant response rating (0 to 100 scale) ([4]; Preemergence, 62 g ai/ha): 40
Plant response rating (0 to 100 scale) ([4]; Preemergence, 125 g ai/ha): 85
Plant response rating (0 to 100 scale) ([4]; Preemergence, 250 g ai/ha): 95
Plant response rating (0 to 100 scale) ([4]; Preemergence, 500 g ai/ha): 100
Plant response rating (0 to 100 scale) ([5]; Postemergence, 31 g ai/ha): 0
Plant response rating (0 to 100 scale) ([5]; Postemergence, 62 g ai/ha): 20
Plant response rating (0 to 100 scale) ([5]; Postemergence, 125 g ai/ha): 40
Plant response rating (0 to 100 scale) ([5]; Postemergence, 250 g ai/ha): 50
Plant response rating (0 to 100 scale) ([5]; Postemergence, 500 g ai/ha): 70
Plant response rating (0 to 100 scale) ([5]; Preemergence, 31 g ai/ha): 10
Plant response rating (0 to 100 scale) ([5]; Preemergence, 62 g ai/ha): 40
Plant response rating (0 to 100 scale) ([5]; Preemergence, 125 g ai/ha): 50
Plant response rating (0 to 100 scale) ([5]; Preemergence, 250 g ai/ha): 80
Plant response rating (0 to 100 scale) ([5]; Preemergence, 500 g ai/ha): 90
Plant response rating (0 to 100 scale) ([6]; Postemergence, 31 g ai/ha): 5
Plant response rating (0 to 100 scale) ([6]; Postemergence, 62 g ai/ha): 10
Plant response rating (0 to 100 scale) ([6]; Postemergence, 125 g ai/ha): 35
Plant response rating (0 to 100 scale) ([6]; Postemergence, 250 g ai/ha): 40
Plant response rating (0 to 100 scale) ([6]; Postemergence, 500 g ai/ha): 50
Plant response rating (0 to 100 scale) ([6]; Preemergence, 31 g ai/ha): 30
Plant response rating (0 to 100 scale) ([6]; Preemergence, 62 g ai/ha): 40
Plant response rating (0 to 100 scale) ([6]; Preemergence, 125 g ai/ha): 30
Plant response rating (0 to 100 scale) ([6]; Preemergence, 250 g ai/ha): 65
Plant response rating (0 to 100 scale) ([6]; Preemergence, 500 g ai/ha): 85
Plant response rating (0 to 100 scale) ([7]; Postemergence, 31 g ai/ha): 70
Plant response rating (0 to 100 scale) ([7]; Postemergence, 62 g ai/ha): 90
Plant response rating (0 to 100 scale) ([7]; Postemergence, 125 g ai/ha): 100
Plant response rating (0 to 100 scale) ([7]; Postemergence, 250 g ai/ha): 100
Plant response rating (0 to 100 scale) ([7]; Postemergence, 500 g ai/ha): 100
Plant response rating (0 to 100 scale) ([7]; Preemergence, 31 g ai/ha): 80
Plant response rating (0 to 100 scale) ([7]; Preemergence, 62 g ai/ha): 100
Plant response rating (0 to 100 scale) ([7]; Preemergence, 125 g ai/ha): 100
Plant response rating (0 to 100 scale) ([7]; Preemergence, 250 g ai/ha): 100
Plant response rating (0 to 100 scale) ([7]; Preemergence, 500 g ai/ha): 100

COC(=O)c1nc(-c2ccc(Cl)cc2)nc(N)c1Cl [Compound 58, methyl 6-amino-5-chloro-2-(4-chlorophenyl)-4-pyrimidinecarboxylate]
ORYSW Obsd. ([8]; Cmpd 58 16 g a.i./ha alone): 10
ORYSW Obsd. ([8]; Cmpd 58 32 g a.i./ha alone): 10
ORYSW Obsd. ([8]; Cmpd 58 64 g a.i./ha alone): 20
ORYSP Obsd. ([9]; Cmpd 58 16 g a.i./ha alone): 0
ORYSP Obsd. ([9]; Cmpd 58 32 g a.i./ha alone): 0
ORYSP Obsd. ([9]; Cmpd 58 64 g a.i./ha alone): 0
ECHCG Obsd. ([10]; Compound 58 16 g a.i./ha alone): 0
ECHCG Obsd. ([10]; Compound 58 32 g a.i./ha alone): 0
ECHCG Obsd. ([10]; Compound 58 64 g a.i./ha alone): 0
